Laboratory results as given in publication PMC7089538, “The effects of intra-stomach obestatin administration on intestinal contractility in neonatal piglets fed milk formula” (PLoS ONE, 2020).
Marks after values point to notes of the source that are not given here. Where no end group is shown, it is not given here.

Experiments:
duodenum [1] = experiment: ACh-stimulated or atropine-treated contractions; assay type: in vivo, piglets (Polish Landrace x Pietrain); settings: 6 days, duodenum strips, atropine pretreatment (ATR^-6), mean ± SEM
middle jejunum = experiment: ACh-stimulated or atropine-treated contractions; assay type: in vivo, piglets (Polish Landrace x Pietrain); settings: 6 days, middle jejunum strips, mean ± SEM; for amplitude of atropine treated contractions: atropine pretreatment (ATR^-6)
Experimental: (§1) Piglets' BW was recorded every morning. […] The protein concentration in the milk formula was 20%. […] The tissues were attached to isotonic transducers (Letica Scientific Instruments, Spain) under a load of 1.0 g that were coupled with a PowerLab recording system (ADInstruments, Sydney, Australia). […] The tissues were then washed and allowed to equilibrate. […] Half of randomly selected jejunal segments were pre-treated with atropine.

duodenum [2] = experiment: ACh-stimulated or atropine-treated contractions; assay type: in vivo, piglets (Polish Landrace x Pietrain); settings: 6 days, duodenum strips, mean ± SEM
Experimental: as §1

in vivo = settings: male, Polish Landrace x Pietrain, pig, po, obestatin concentration in the blood plasma
[3] = O10: obestatin 10 μg/kg BW intra-stomach every 8 h
[4] = O15: obestatin 15 μg/kg BW intra-stomach every 8 h
[5] = O2: obestatin 2 μg/kg BW intra-stomach every 8 h, ACh^-4 (10^−4 M, cumulative)
[6] = O2: obestatin 2 μg/kg BW intra-stomach every 8 h, ACh^-5 (10^−5 M, cumulative)
[7] = O2: obestatin 2 μg/kg BW intra-stomach every 8 h, ACh^-6 (10^−6 M, cumulative)
[8] = O2: obestatin 2 μg/kg BW intra-stomach every 8 h, ACh^-7 (10^−7 M, cumulative)
[9] = O2: obestatin 2 μg/kg BW intra-stomach every 8 h, ACh^-8 (10^−8 M, cumulative)
[10] = O10: obestatin 10 μg/kg BW intra-stomach every 8 h, ACh^-4 (10^−4 M, cumulative)
[11] = O10: obestatin 10 μg/kg BW intra-stomach every 8 h, ACh^-5 (10^−5 M, cumulative)
[12] = O10: obestatin 10 μg/kg BW intra-stomach every 8 h, ACh^-6 (10^−6 M, cumulative)
[13] = O10: obestatin 10 μg/kg BW intra-stomach every 8 h, ACh^-7 (10^−7 M, cumulative)
[14] = O10: obestatin 10 μg/kg BW intra-stomach every 8 h, ACh^-8 (10^−8 M, cumulative)
[15] = O10: obestatin 10 μg/kg BW intra-stomach every 8 h, ACh^-9 (10^−9 M, cumulative)
[16] = O15: obestatin 15 μg/kg BW intra-stomach every 8 h, ACh^-4 (10^−4 M, cumulative)
[17] = O15: obestatin 15 μg/kg BW intra-stomach every 8 h, ACh^-5 (10^−5 M, cumulative)
[18] = O15: obestatin 15 μg/kg BW intra-stomach every 8 h, ACh^-6 (10^−6 M, cumulative)
[19] = O15: obestatin 15 μg/kg BW intra-stomach every 8 h, ACh^-7 (10^−7 M, cumulative)
[20] = O15: obestatin 15 μg/kg BW intra-stomach every 8 h, ACh^-8 (10^−8 M, cumulative)
[21] = O15: obestatin 15 μg/kg BW intra-stomach every 8 h, ACh^-9 (10^−9 M, cumulative)

FNAPFDVGIKLSGAQYQQHGRAL-NH2 [obestatin]
amplitude of atropine treated contractions (duodenum [1]; [3]): 0.97 ± 0.1 mm
amplitude of atropine treated contractions (duodenum [1]; [4]): 1.0 ± 0.1 mm
amplitude of ACh stimulated contractions (middle jejunum; [5]): 12.3 ± 1.0^a^b mm
amplitude of ACh stimulated contractions (middle jejunum; [6]): 8.0 ± 0.9 mm
amplitude of ACh stimulated contractions (middle jejunum; [7]): 6.3 ± 0.9^a^b mm
amplitude of ACh stimulated contractions (middle jejunum; [8]): 6.1 ± 0.8 mm
amplitude of ACh stimulated contractions (middle jejunum; [9]): 6.0 ± 0.7 mm
amplitude of atropine treated contractions (middle jejunum; O2: obestatin 2 μg/kg BW intra-stomach every 8 h): 0.97 ± 0.1^a^b mm
amplitude of ACh stimulated contractions (middle jejunum; [10]): 12.5 ± 0.9^b mm
amplitude of ACh stimulated contractions (middle jejunum; [11]): 10.1 ± 0.7 mm
amplitude of ACh stimulated contractions (middle jejunum; [12]): 7.0 ± 0.9^b mm
amplitude of ACh stimulated contractions (middle jejunum; [13]): 4.8 ± 0.9 mm
amplitude of ACh stimulated contractions (middle jejunum; [14]): 4.6 ± 0.9 mm
amplitude of ACh stimulated contractions (middle jejunum; [15]): 3.9 ± 0.8^a^b mm
amplitude of atropine treated contractions (middle jejunum; [3]): 1.10 ± 0.2^b mm
amplitude of ACh stimulated contractions (middle jejunum; [16]): 13.7 ± 0.8^b mm
amplitude of ACh stimulated contractions (middle jejunum; [17]): 9.0 ± 0.8 mm
amplitude of ACh stimulated contractions (middle jejunum; [18]): 7.3 ± 0.8^b mm
amplitude of ACh stimulated contractions (middle jejunum; [19]): 6.8 ± 0.6 mm
amplitude of ACh stimulated contractions (middle jejunum; [20]): 6.7 ± 0.7 mm
amplitude of ACh stimulated contractions (middle jejunum; [21]): 6.6 ± 0.7^b mm
amplitude of atropine treated contractions (middle jejunum; [4]): 1.20 ± 0.1^b mm
amplitude of ACh stimulated contractions (duodenum [2]; [5]): 14.1 ± 1.2^a^b mm
amplitude of ACh stimulated contractions (duodenum [2]; [6]): 11.2 ± 0.7 mm
amplitude of ACh stimulated contractions (duodenum [2]; [7]): 7.4 ± 0.9 mm
amplitude of ACh stimulated contractions (duodenum [2]; [8]): 7.1 ± 0.7 mm
amplitude of ACh stimulated contractions (duodenum [2]; [9]): 7.0 ± 0.7 mm
amplitude of ACh stimulated contractions (duodenum [2]; O2: obestatin 2 μg/kg BW intra-stomach every 8 h, ACh^-9 (10^−9 M, cumulative)): 6.2 ± 0.3 mm
amplitude of atropine treated contractions (duodenum [2]; O2: obestatin 2 μg/kg BW intra-stomach every 8 h, atropine pretreatment (ATR^-6)): 1.26 ± 0.2 mm
amplitude of ACh stimulated contractions (duodenum [2]; [10]): 12.3 ± 1.1^a^b mm
amplitude of ACh stimulated contractions (duodenum [2]; [11]): 8.2 ± 0.9 mm
amplitude of ACh stimulated contractions (duodenum [2]; [12]): 6.3 ± 0.9 mm
amplitude of ACh stimulated contractions (duodenum [2]; [13]): 6.1 ± 0.9 mm
amplitude of ACh stimulated contractions (duodenum [2]; [14]): 6.0 ± 0.8 mm
amplitude of ACh stimulated contractions (duodenum [2]; [15]): 5.9 ± 0.9 mm
amplitude of ACh stimulated contractions (duodenum [2]; [16]): 15.1 ± 0.4^b mm
amplitude of ACh stimulated contractions (duodenum [2]; [17]): 9.6 ± 0.6 mm
amplitude of ACh stimulated contractions (duodenum [2]; [18]): 6.7 ± 0.8 mm
amplitude of ACh stimulated contractions (duodenum [2]; [19]): 5.9 ± 0.6 mm
amplitude of ACh stimulated contractions (duodenum [2]; [20]): 5.4 ± 0.4 mm
amplitude of ACh stimulated contractions (duodenum [2]; [21]): 5.3 ± 0.5 mm
level at 0.5 h (in vivo; 2 ug/kg BW): 0.369 ± 0.026 ng/mL
level at 1 h (in vivo; 2 ug/kg BW): 0.37 ± 0.023 ng/mL
level at 0.5 h (in vivo; 10 ug/kg BW): 0.413 ± 0.011 ng/mL
level at 1 h (in vivo; 10 ug/kg BW): 0.475 ± 0.022 ng/mL
level at 0.5 h (in vivo; 15 ug/kg BW): 0.405 ± 0.026 ng/mL
level at 1 h (in vivo; 15 ug/kg BW): 0.45 ± 0.053 ng/mL
